Reference: PubChem BioAssay (NCI)
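Values below derive from 48-hour exposures of cells grown in 96-well plates, with endpoints linearly interpolated between the two concentrations bracketing the appropriate inhibition level. GI50 is the concentration that inhibits growth by half. TGI: concentration producing complete growth inhibition.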

What was measured:
Experiment in all cases: NCI tumour cell line growth inhibition, 48 h
[1] = test system: DLD-1 colon
[2] = test system: DMS 273 small cell lung
[3] = test system: KM20L2 colon
[4] = test system: SNB-78 CNS
[5] = test system: LXFL 529 NSCLC
[6] = test system: HOP-18 NSCLC
[7] = test system: DMS 114 small cell lung
[8] = test system: M19-MEL melanoma
[9] = test system: P388/ADR leukemia
[10] = test system: P388 leukemia
[11] = test system: SN12K1 renal

Compound | GI50 [1] | TGI [1] | GI50 [2] | TGI [2] | GI50 [3] | TGI [3] | GI50 [4] | TGI [4] | GI50 [5] | TGI [5] | GI50 [6] | TGI [6] | TGI [7] | TGI [8] | TGI [9] | TGI [10] | TGI [11]
N.N.NCCCCN.O=C([O-])CCl.O=C([O-])CCl.O=C([O-])CCl.O=C([O-])CCl.[Pt+4].[Pt+4] | > 50 µM | > 50 µM | 36 µM | > 50 µM | > 50 µM | > 50 µM | > 50 µM | > 50 µM | > 50 µM | > 50 µM | > 50 µM | > 50 µM |  |  |  |  | 
COc1ccc(/C=N/N=C(N)N)c(C(=O)O)c1OC |  |  |  | > 100 µM |  | > 100 µM |  | > 100 µM |  | > 100 µM |  | > 100 µM | > 100 µM |  |  |  | 
CC1(C)OC2C(CO)OC(/N=C(\NC#N)Oc3ccccc3)C2O1 (configuration not stated) |  | > 100 µM |  | > 100 µM |  | > 100 µM |  | > 100 µM |  | > 100 µM |  |  | > 100 µM | > 100 µM |  |  | 
CSCC[C@@H](NC(=O)[C@H](CC(C)C)NC(=O)C(Cc1cnc[nH]1)NC(=O)CNC(=O)[C@@H](NC(=O)[C@H](C)NC(=O)[C@H](Cc1cn(C=O)c2ccccc12)NC(=O)[C@H](CCC(N)=O)NC(=O)[C@@H](N)CC(N)=O)C(C)C)C(N)=O (some centres not stated) |  | > 100 µM |  | > 100 µM |  | > 100 µM |  | > 100 µM |  |  |  | > 100 µM | > 100 µM | > 100 µM | > 100 µM | > 100 µM | > 100 µM
CC12CCC3=C(CSC4=C3CSc3ccccc34)C1=CCCC2=O (configuration not stated) |  | > 100 µM |  | > 100 µM |  | > 100 µM |  |  |  | > 100 µM |  | > 100 µM | > 100 µM | > 100 µM |  |  | 
